Tests used:
Experiment in all cases: relative viability (nuclei count vs DMSO), 5 days (fraction); higher = more cells survive
Bexarotene + Navitoclax = compound: C=C(c1ccc(C(=O)O)cc1)c1cc2c(cc1C)C(C)(C)CCC2(C)C [Bexarotene] + CC1(C)CCC(c2ccc(Cl)cc2)=C(CN2CCN(c3ccc(C(=O)NS(=O)(=O)c4ccc(N[C@H](CCN5CCOCC5)CSc5ccccc5)c(S(=O)(=O)C(F)(F)F)c4)cc3)CC2)C1 [Navitoclax] (partner 0.5 µM)
Outline: (§1)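 Values are medians from duplicate plates. Each reflects relative viability, defined as the nuclei count of treated wells over that of vehicle wells. Lung cancer cell lines in 1536-well plates were pin-tool dosed one day after seeding with one drug alone or with a fixed anchor-drug dose plus five library-drug doses (not always all listed) in √10 steps, then fixed, stained and imaged at 4× after 5 days.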

Bexarotene + Crizotinib = compound: C=C(c1ccc(C(=O)O)cc1)c1cc2c(cc1C)C(C)(C)CCC2(C)C [Bexarotene] + C[C@@H](Oc1cc(-c2cnn(C3CCNCC3)c2)cnc1N)c1c(Cl)ccc(F)c1Cl [Crizotinib] (partner 1 µM)
Outline: as §1

Bexarotene + Dasatinib = compound: C=C(c1ccc(C(=O)O)cc1)c1cc2c(cc1C)C(C)(C)CCC2(C)C [Bexarotene] + Cc1nc(Nc2ncc(C(=O)Nc3c(C)cccc3Cl)s2)cc(N2CCN(CCO)CC2)n1 [Dasatinib] (partner 0.075 µM)
Outline: as §1

Bexarotene + Vorinostat = compound: C=C(c1ccc(C(=O)O)cc1)c1cc2c(cc1C)C(C)(C)CCC2(C)C [Bexarotene] + O=C(CCCCCCC(=O)Nc1ccccc1)NO [Vorinostat] (partner 1 µM)
Outline: as §1

Cell Line	relative viability (Bexarotene + Navitoclax; first compound 0.08 µM)	relative viability (Bexarotene + Navitoclax; first compound 0.253 µM)	relative viability (Bexarotene + Navitoclax; first compound 0.8 µM)	relative viability (Bexarotene + Navitoclax; first compound 2.53 µM)	relative viability (Bexarotene + Navitoclax; first compound 8 µM)	relative viability (Bexarotene + Crizotinib; first compound 0.08 µM)	relative viability (Bexarotene + Crizotinib; first compound 0.253 µM)	relative viability (Bexarotene + Crizotinib; first compound 0.8 µM)	relative viability (Bexarotene + Crizotinib; first compound 2.53 µM)	relative viability (Bexarotene + Crizotinib; first compound 8 µM)	relative viability (Bexarotene + Dasatinib; first compound 0.08 µM)	relative viability (Bexarotene + Dasatinib; first compound 0.253 µM)	relative viability (Bexarotene + Dasatinib; first compound 0.8 µM)	relative viability (Bexarotene + Dasatinib; first compound 2.53 µM)	relative viability (Bexarotene + Dasatinib; first compound 8 µM)	relative viability (Bexarotene + Vorinostat; first compound 0.08 µM)	relative viability (Bexarotene + Vorinostat; first compound 0.253 µM)	relative viability (Bexarotene + Vorinostat; first compound 0.8 µM)	relative viability (Bexarotene + Vorinostat; first compound 2.53 µM)	relative viability (Bexarotene + Vorinostat; first compound 8 µM)
RERF-LC-KJ	1.07	0.934	1.08	1	0.92	0.773	0.791	0.76	0.777	0.752	0.757	0.707	0.703	0.825	0.742	0.689	0.707	0.641	0.7	0.609
NCI-H1915	0.846	0.792	0.834	0.77	0.728	0.969	0.948	0.851	0.905	0.849	0.391	0.319	0.292	0.297	0.297	0.544	0.579	0.482	0.513	0.513
NCI-H596	1.02	0.85	0.707	0.973	0.829	1.05	1.01	0.871	0.973	1.05	0.671	0.654	0.773	0.907	0.704	0.655	0.69	0.414	0.533	0.602
NCI-H2009	1.24	1.28	1.23	1.17	1.19	1.16	0.882	1.08	1.08	1.06	0.323	0.33	0.301	0.322	0.359	0.692	0.86	0.845	0.76	0.834
NCI-H2126	0.925	0.916	0.844	0.958	0.872	1.08	1.05	0.989	1.08	0.977	0.573	0.588	0.586	0.584	0.602	0.882	0.902	0.703	0.762	0.751
LXF-289	1.11	1.09	1.08	1.1	0.974	0.901	0.994	1	0.979	0.973	0.213	0.195	0.179	0.127	0.155	0.906	0.907	0.861	0.789	0.935
PC-14	1.12	1.11	0.948	0.841	0.809	0.912	1.04	1.04	0.946	0.841	0.281	0.305	0.269	0.319	0.274	0.882	0.844	0.643	0.741	0.636
HOP-62	1.02	1.07	1.26	1.01	1.17	1.18	0.915	0.953	1.09	0.944	0.677	0.641	0.428	0.606	0.57	0.808	0.831	0.709	0.555	0.624

— the supplement of paper PMC10307832
